Experimental data taken from patent US20130252247A1, “KIT FOR SCREENING FOR SKIN-ACTIVATING SUBSTANCES AND COMPRISING THE KLOTHO GENE, AND METHOD FOR SCREENING FOR SKIN-ACTIVATING SUBSTANCES USING THE SAME” (Amorepacific Corporation, priority 2011, published 2013).

Test system: Klotho
Experiment: Klotho expression in keratinocytes treated with retinoic acid and retinol, quantitative real-time PCR
Type: cell-based, human
Protocol: In order to examine whether Klotho protein is expressed in skin cells, primers of SEQ ID NOS: 1 and 2, which can amplify Klotho gene (NCBI accession No. NM-004795), were constructed. Then, RT-PCR was performed using the primer set and a probe of SEQ ID NO: 3 (TaqMan™ fluorogenic probe) in order to detect Klotho mRNA in the cDNA of keratinocytes (NHK), fibroblasts (NHF), NHM-promoblack (Normal Human Epidermal Melanocytes (NHEM) juvenile foreskin, Promocell: melanocytes derived from dark-skinned persons), NHM-DP (NHM-dark pigment, Invitrogen: melanocytes derived from dark-skinned persons) and NHM-MP (NHM-moderate pigment, Invitrogen: melanocytes derived from Asian). The PCR reaction was performed for 35 cycles, each consisting of denaturation at 94° C. for 30 sec, annealing at 55° C. for 30 sec, and extension at 72° C. for 60 sec. As a positive control, the cDNA of human embryonic kidney cells (HEK293) known to express Klotho gene was used.
In order to examine the effects of retinoic acid and retinol (known as anti-aging substances) on the expression of Klotho in keratinocytes, quantitative real time PCR was performed under the same conditions as described in Test Example 1, and the expression levels of Klotho protein were examined at 2 days and 8 days after treatment of the cells with each of 0.1 μM and 1 μM of retinoic acid and 1 μM and 10 μM of retinol.

SMILES: CC1=C(/C=C/C(C)=C/C=C/C(C)=C/CO)C(C)(C)CCC1 [retinol]
- expression level of Klotho protein (keratinocytes, 8 days after treatment, 0.1 μM and 1 μM retinoic acid, 1 μM and 10 μM retinol, FIG. 3): significantly increased
- expression of Klotho protein (summary statement, found using the kit): increased
